What is called IC50 is the point on the concentration scale where inhibition reaches its midpoint. A high value points to weaker potency.

Numbered stars: 1 amine (or outer) side, 2 acyl side, 3 side chain; on linkers, the order of the positions; unused ones are H or OH. Bridge positions count the residues as written; N and C are the ends. Square brackets hold non-standard residues; d marks the D form. Peptide text beside a SMILES is read from it. X1 = O=C(CN(CCC(F)(F)F)[*:1])[*:2]; Gly(N-2-aminoethyl) = NCCNCC(=O)O; Hyp = O=C(O)[C@@H]1C[C@@H](O)CN1; Gly(N-CH2CH2OH) = O=C(O)CNCCO; NMeNle = CCCC[C@H](NC)C(=O)O; NMeA = CN[C@@H](C)C(=O)O; Nphe = O=C(O)CNCc1ccccc1; Dab = NCC[C@H](N)C(=O)O; Nme = COCCNCC(=O)O; NEtG = CCNCC(=O)O

The target of the first test is T1, PD-1-Ig binding to PD-L1-TVMV-His (PD-L1-His) (Homo sapiens, UniProt Q9NZQ7).
T1 construct: hPDL1(19-239)-TVMV-His; made in house; host or cells: HEK293T
T1 sequence (Q9NZQ7 with tags, fused parts or gaps): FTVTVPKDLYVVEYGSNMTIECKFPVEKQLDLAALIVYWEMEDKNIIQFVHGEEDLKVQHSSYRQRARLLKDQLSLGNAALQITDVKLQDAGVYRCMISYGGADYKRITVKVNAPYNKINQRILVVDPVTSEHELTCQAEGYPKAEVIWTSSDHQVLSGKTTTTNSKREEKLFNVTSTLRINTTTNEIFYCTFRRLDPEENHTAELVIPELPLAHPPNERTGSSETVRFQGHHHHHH
The test is described as follows: PD-1/PD-L1 Homogenous Time-Resolved Fluorescence (HTRF) binding assay. Conditions: numeric value; PD-L1-His 10 nM, PD-1-Ig 20 nM. An excerpt: Methods for Testing the Ability of Macrocyclic Peptides to Compete for the Binding of Pd-1 to Pd-L1 Using Homogenous Time-Resolved Fluorescence (HTRF) Binding Assays
The ability of the macrocyclic peptides of the present disclosure to bind to PD-L1 was investigated using a PD-1/PD-L1 Homogenous Time-Resolved Fluorescence (HTRF) binding assay.
Homogenous Time-Resolved Fluorescence (HTRF) Assays of Binding of Soluble PD-1 to Soluble PD-L1. Soluble PD-1 and soluble PD-L1 refers to proteins with carboxyl-end truncations that remove the transmembrane-spanning regions and are fused to heterologous sequences, specifically the Fc portion of the human immunoglobuling G sequence (Ig) or the hexahistidine epitope tag (His). All binding studies were performed in an HTRF assay buffer consisting of dPBS supplemented with 0.1% (w/v) bovine serum albumin and 0.05% (v/v) Tween-20. For the PD-1-Ig/PD-L1-His binding assay, inhibitors were pre-incubated with PD-L1-His (10 nM final) for 15 m in 4 μl of assay buffer, followed by addition of PD-1-Ig (20 nM final) in 1 μl of assay buffer and further incubation for 15 m. PD-L1 fusion proteins from either human, cynomologous macaques, mouse, or other species were used. HTRF detection was achieved using europium crypate-labeled anti-Ig monoclonal antibody (1 nM final) and allophycocyanin (APC) labeled anti-His monoclonal antibody (20 nM final). Antibodies were diluted in HTRF detection buffer and 5 μl was dispensed on top of binding reaction. The reaction was allowed to equilibrate for 30 minutes and signal (665 nm/620 nm ratio) was obtained using an EnVision fluorometer. Additional binding assays were established between PD-1-Ig/PD-L2-His (20 and 5 nM, respectively), CD80-His/PD-L1-Ig (100 and 10 nM, respectively) and CD80-His/CTLA4-Ig (10 and 5 nM, respectively). Binding/competition studies between biotinylated Compound No. 71 and human PD-L1-His were performed as follows. Macrocyclic peptide inhibitors were pre-incubated with PD-L1-His (10 nM final) for 60 minutes in 4 μl of assay buffer followed by addition of biotinylated Compound No. 71 (0.5 nM final) in 1 μl of assay buffer. Binding was allowed to equilibrate for 30 minutes followed by addition of europium crypated labeled Streptavidin (2.5 pM final) and APC-labeled anti-His (20 nM final) in 5 μl of HTRF buffer. The reaction was allowed to equilibrate for 30 m and signal (665 nm/620 nm ratio) was obtained using an EnVision fluorometer.
Recombinant Proteins. Carboxyl-truncated human PD-1 (amino acids 25-167) with a C-terminal human Ig epitope tag [hPD-1 (25-167)-3S-IG] and human PD-L1 (amino acids 18-239) with a C-terminal His epitope tag [hPD-L1(19-239)-tobacco vein mottling virus protease cleavage site (TVMV)-His] were expressed in HEK293T cells and purified sequentially by recombinant Protein A affinity chromatography and size exclusion chromatography. Human PD-L2-His (Sino Biologicals), CD80-His (Sino Biologicals), CTLA4-Ig (RnD Systems) were all obtained through commercial sources.
Ranges are as follows: A=0.10-10 μM; B=0.01-0.099 μM; C=0.005-0.0099 μM.
(In TR-FRET formats the signal depends on donor and acceptor labels being close together.)
`CCCC[C@H]1C(=O)N(C)[C@@H](CCCC)C(=O)N[C@@H](CC(C)C)C(=O)N[C@H](C(=O)NCC(N)=O)CSCC(=O)N[C@@H](Cc2ccc(O)cc2)C(=O)N(C)[C@@H](C)C(=O)N[C@@H](CC(N)=O)C(=O)N2CCC[C@H]2C(=O)N[C@@H](Cc2cnc[nH]2)C(=O)N[C@@H](CCC(=O)O)C(=O)N(CC(=O)O)CC(=O)N[C@@H](Cc2c[nH]c3ccccc23)C(=O)N[C@@H](CCN)C(=O)N[C@@H](Cc2c[nH]c3ccccc23)C(=O)N1C` [Example 3005] displayed an IC50 of 0.03 µM.

Compound `CCCC[C@H]1C(=O)N(C)[C@@H](CCCC)C(=O)N[C@@H](CC(C)C)C(=O)N[C@H](C(=O)NCC(N)=O)CSCC(=O)N[C@@H](Cc2ccc(O)cc2)C(=O)N(C)[C@@H](C)C(=O)N[C@@H](CC(N)=O)C(=O)N(Cc2ccccc2)CC(=O)N[C@@H](Cc2cnc[nH]2)C(=O)N[C@@H](CCC(=O)O)C(=O)N2C[C@H](O)C[C@H]2C(=O)N[C@@H](Cc2c[nH]c3ccccc23)C(=O)N[C@@H](CCN)C(=O)N[C@@H](Cc2c[nH]c3ccccc23)C(=O)N1C` [Example 3008] ({CH2CO}-Y[NMeA]N[Nphe]HE[Hyp]W[Dab]W[NMeNle][NMeNle]LCG-NH2; thioether N-14) showed a half-maximal inhibitory concentration (IC50) of 0.2 µM.

`CCCC[C@H]1C(=O)N(C)[C@@H](CCCC)C(=O)N[C@@H](CC(C)C)C(=O)N[C@H](C(=O)NCC(N)=O)CSCC(=O)N[C@@H](Cc2ccc(O)cc2)C(=O)N(C)[C@@H](C)C(=O)N[C@@H](CC(N)=O)C(=O)N2CCC[C@H]2C(=O)N[C@@H](Cc2cnc[nH]2)C(=O)N[C@@H](CCC(=O)O)C(=O)N(CCN)CC(=O)N[C@@H](Cc2c[nH]c3ccccc23)C(=O)N[C@@H](CCN)C(=O)N[C@@H](Cc2c[nH]c3ccccc23)C(=O)N1C` [Example 3011] ({CH2CO}-Y[NMeA]NPHE[Gly(N-2-aminoethyl)]W[Dab]W[NMeNle][NMeNle]LCG-NH2; thioether N-14) gave an IC50 of 0.00612 µM.

Still in this test, the particulars now being: range class; PD-L1-His 10 nM, PD-1-Ig 20 nM.
On to `CCCC[C@H]1C(=O)N(C)[C@@H](CCCC)C(=O)N[C@@H](CC(C)C)C(=O)N[C@H](C(=O)NCC(N)=O)CSCC(=O)N[C@@H](Cc2ccc(O)cc2)C(=O)N(C)[C@@H](C)C(=O)N[C@@H](CC(N)=O)C(=O)N2CCC[C@H]2C(=O)N[C@@H](Cc2cnc[nH]2)C(=O)N[C@@H](CCC(=O)O)C(=O)N(CC)CC(=O)N[C@@H](Cc2c[nH]c3ccccc23)C(=O)N[C@@H](CCN)C(=O)N[C@@H](Cc2c[nH]c3ccccc23)C(=O)N1C` [Example 3003] ({CH2CO}-Y[NMeA]NPHE[NEtG]W[Dab]W[NMeNle][NMeNle]LCG-NH2; thioether N-14), for which the IC50 lay within 0.01 to 0.099 µM.

Compound `CCCC[C@H]1C(=O)N(C)[C@@H](CCCC)C(=O)N[C@@H](CC(C)C)C(=O)N[C@H](C(=O)NCC(N)=O)CSCC(=O)N[C@@H](Cc2ccc(O)cc2)C(=O)N(C)[C@@H](C)C(=O)N[C@@H](CC(N)=O)C(=O)N2CCC[C@H]2C(=O)N[C@@H](Cc2cnc[nH]2)C(=O)N[C@@H](CCC(=O)O)C(=O)N(Cc2ccccc2)CC(=O)N[C@@H](Cc2c[nH]c3ccccc23)C(=O)N[C@@H](CCN)C(=O)N[C@@H](Cc2c[nH]c3ccccc23)C(=O)N1C` [Example 3004] ({CH2CO}-Y[NMeA]NPHE[Nphe]W[Dab]W[NMeNle][NMeNle]LCG-NH2; thioether N-14) registered an IC50 of 0.01 to 0.099 µM.

Regarding `CCCC[C@H]1C(=O)N(C)[C@@H](CCCC)C(=O)N[C@@H](CC(C)C)C(=O)N[C@H](C(=O)NCC(N)=O)CSCC(=O)N[C@@H](Cc2ccc(O)cc2)C(=O)N(C)[C@@H](C)C(=O)N[C@@H](CC(N)=O)C(=O)N2CCC[C@H]2C(=O)N[C@@H](Cc2cnc[nH]2)C(=O)N[C@@H](CCC(=O)O)C(=O)N(CCOC)CC(=O)N[C@@H](Cc2c[nH]c3ccccc23)C(=O)N[C@@H](CCN)C(=O)N[C@@H](Cc2c[nH]c3ccccc23)C(=O)N1C` [Example 3006] ({CH2CO}-Y[NMeA]NPHE[Nme]W[Dab]W[NMeNle][NMeNle]LCG-NH2; thioether N-14), the IC50 lay in the range of 0.01 to 0.099 µM.

Consider `CCCC[C@H]1C(=O)N(C)[C@@H](CCCC)C(=O)N[C@@H](CC(C)C)C(=O)N[C@H](C(=O)NCC(N)=O)CSCC(=O)N[C@@H](Cc2ccc(O)cc2)C(=O)N(C)[C@@H](C)C(=O)N[C@@H](CC(N)=O)C(=O)N2CCC[C@H]2C(=O)N[C@@H](Cc2cnc[nH]2)C(=O)N[C@@H](CCC(=O)O)C(=O)N(CCC(F)(F)F)CC(=O)N[C@@H](Cc2c[nH]c3ccccc23)C(=O)N[C@@H](CCN)C(=O)N[C@@H](Cc2c[nH]c3ccccc23)C(=O)N1C` [Example 3007] ({CH2CO}-Y[NMeA]NPHE[X1]W[Dab]W[NMeNle][NMeNle]LCG-NH2; thioether N-14), for which the IC50 lay within 0.01 to 0.099 µM.

As for `CCCC[C@H]1C(=O)N(C)[C@@H](CCCC)C(=O)N[C@@H](CC(C)C)C(=O)N[C@H](C(=O)NCC(N)=O)CSCC(=O)N[C@@H](Cc2ccc(O)cc2)C(=O)N(C)[C@@H](C)C(=O)N[C@@H](CC(N)=O)C(=O)N(CCOC)CC(=O)N[C@@H](Cc2cnc[nH]2)C(=O)N[C@@H](CCC(=O)O)C(=O)N2C[C@H](O)C[C@H]2C(=O)N[C@@H](Cc2c[nH]c3ccccc23)C(=O)N[C@@H](CCN)C(=O)N[C@@H](Cc2c[nH]c3ccccc23)C(=O)N1C` [Example 3009] ({CH2CO}-Y[NMeA]N[Nme]HE[Hyp]W[Dab]W[NMeNle][NMeNle]LCG-NH2; thioether N-14), the IC50 lay within 0.01 to 0.099 µM.

For the compound `CCCC[C@H]1C(=O)N(C)[C@@H](CCCC)C(=O)N[C@@H](CC(C)C)C(=O)N[C@H](C(=O)NCC(N)=O)CSCC(=O)N[C@@H](Cc2ccc(O)cc2)C(=O)N(C)[C@@H](C)C(=O)N[C@@H](CC(N)=O)C(=O)N(CCC(F)(F)F)CC(=O)N[C@@H](Cc2cnc[nH]2)C(=O)N[C@@H](CCC(=O)O)C(=O)N2C[C@H](O)C[C@H]2C(=O)N[C@@H](Cc2c[nH]c3ccccc23)C(=O)N[C@@H](CCN)C(=O)N[C@@H](Cc2c[nH]c3ccccc23)C(=O)N1C` [Example 3010] ({CH2CO}-Y[NMeA]N[X1]HE[Hyp]W[Dab]W[NMeNle][NMeNle]LCG-NH2; thioether N-14), the IC50 is 0.01 to 0.099 µM.

As to `CCCC[C@H]1C(=O)N(C)[C@@H](CCCC)C(=O)N[C@@H](CC(C)C)C(=O)N[C@H](C(=O)NCC(N)=O)CSCC(=O)N[C@@H](Cc2ccc(O)cc2)C(=O)N(C)[C@@H](C)C(=O)N[C@@H](CC(N)=O)C(=O)N2CCC[C@H]2C(=O)N[C@@H](Cc2cnc[nH]2)C(=O)N[C@@H](CCC(=O)O)C(=O)N(CCO)CC(=O)N[C@@H](Cc2c[nH]c3ccccc23)C(=O)N[C@@H](CCN)C(=O)N[C@@H](Cc2c[nH]c3ccccc23)C(=O)N1C` [Example 3012] ({CH2CO}-Y[NMeA]NPHE[Gly(N-CH2CH2OH)]W[Dab]W[NMeNle][NMeNle]LCG-NH2; thioether N-14), the IC50 lay within 0.01 to 0.099 µM.

`CCCC[C@H]1C(=O)N(C)[C@@H](CCCC)C(=O)N[C@@H](CC(C)C)C(=O)N[C@H](C(=O)NCC(N)=O)CSCC(=O)N[C@@H](Cc2ccc(O)cc2)C(=O)N(C)[C@@H](C)C(=O)N[C@@H](CC(N)=O)C(=O)N(CC)CC(=O)N[C@@H](Cc2cnc[nH]2)C(=O)N[C@@H](CCC(=O)O)C(=O)N2C[C@H](O)C[C@H]2C(=O)N[C@@H](Cc2c[nH]c3ccccc23)C(=O)N[C@@H](CCN)C(=O)N[C@@H](Cc2c[nH]c3ccccc23)C(=O)N1C` [Example 3013] ({CH2CO}-Y[NMeA]N[NEtG]HE[Hyp]W[Dab]W[NMeNle][NMeNle]LCG-NH2; thioether N-14) returned a half-inhibitory concentration (IC50) of 0.01 to 0.099 µM.

For the compound `CCCC[C@H]1C(=O)N(C)[C@@H](CCCC)C(=O)N[C@@H](CC(C)C)C(=O)N[C@H](C(=O)NCC(N)=O)CSCC(=O)N[C@@H](Cc2ccc(O)cc2)C(=O)N(C)[C@@H](C)C(=O)N[C@@H](CC(N)=O)C(=O)N(CCN)CC(=O)N[C@@H](Cc2cnc[nH]2)C(=O)N[C@@H](CCC(=O)O)C(=O)N2C[C@H](O)C[C@H]2C(=O)N[C@@H](Cc2c[nH]c3ccccc23)C(=O)N[C@@H](CCN)C(=O)N[C@@H](Cc2c[nH]c3ccccc23)C(=O)N1C` [Example 3014] ({CH2CO}-Y[NMeA]N[Gly(N-2-aminoethyl)]HE[Hyp]W[Dab]W[NMeNle][NMeNle]LCG-NH2; thioether N-14), the IC50 is 0.01 to 0.099 µM.

(Values after patent US9861680B2, “Immunomodulators” (BRISTOL-MYERS SQUIBB COMPANY, priority 2014, dated 2018).)
